# “Also recorded” adds a separate entry of the source. Where two headings read alike, the source gives them in different places.
# How the values were obtained:
# [1] = system: anti-SAM monoclonal antibodies; test: Cross-reaction of anti-SAM antibody with MAT substrates ATP and L-Met, direct competitive ELISA; format: binding; settings: for Cross-reaction (%): relative to SAM standard at 50% inhibition
# Protocol: (A) Antigen-coating method: A PLL or BSA-conjugated SAM antigen is pre-coated on a solid-phase ELISA micro-titer plate that is then blocked with BSA solution. The antigen to be detected (SAM sample), then HRP-conjugated anti-SAM antibody are added and incubated at the same time. The antigen to be tested and the coating antigen compete for the enzyme-labeled antibody. After incubation and washing, the enzyme-labeled antibody bound to the coating antigen is retained, and the enzyme-labeled antibody that binds to the antigen to be detected (free antigen) is washed away. Finally, adding TMB substrate to the reaction wells. The final coloration result is inversely proportional to the amount of the antigen to be detected, that is, the higher the OD450 value, the lower the SAM concentration in the sample to be measured. In the course of the experiment, a series of SAM solutions with a known concentration were used as standards in the same ELISA micro-titer plate for the standard curve of the assay. Based on the standard curve, an equation showing how OD450 readings and values of the known standard concentration are related can be obtained. Put the sample OD450 into the equation to get the corresponding concentration value of the sample.
# The ELISA plates were coated with PLL SAM antigen. […] The HRP-anti-SAM antibody was diluted at 1:25000 with HRP antibody diluent. Added 30 μl standards and cross-reacting substances ATP and Met per well, and 70 μl diluted HRP-anti-SAM antibody per well and incubated at 37° C. for 1 h. Washed the plate, added 100 μl TMB at 37° C. for 15 min, added 50 μl stop solution and read OD450.
# A/A0; reaction rate (A0 is the OD450 reading at 0 nM, A represents any OD450 reading of wells that have different amount of free small molecule antigen competing.)
# MAT-III/I in L02 cells = test: Intracellular MAT activity in L02 cells after GSNO pretreatment and Met; format: cell-based, human
# MAT-II in HepG2 cells = target: T1, MAT-II in HepG2 cells (Homo sapiens, UniProt P31153); test: Intracellular MAT activity in HepG2 cells after GSNO pretreatment and Met; format: cell-based
# T1 construct: endogenous in cells; host or cells: HepG2
# [2] = target: methionine adenosyltransferase (MAT) (Escherichia coli, UniProt P0A817)
# [3] = cross-reacting substance 120 nM
# [4] = cross-reacting substance 1200 nM
# [5] = cross-reacting substance 3960 nM
# [6] = cross-reacting substance 12000 nM
compound,measurement,setting,value
"Nc1ncnc2c1ncn2[C@@H]1O[C@H](COP(=O)(O)OP(=O)(O)OP(=O)(O)O)[C@@H](O)[C@H]1O [ATP, adenosine triphosphate]",A/A0 (reaction rate),[1]; [3],1.051
same,A/A0 (reaction rate),[1]; [4],1.001
same,A/A0 (reaction rate),[1]; [5],1.095
same,A/A0 (reaction rate),[1]; [6],1.086
same,Cross-reaction (%),[1],<1%
"N[C@@H](CCC(=O)N[C@@H](CSN=O)C(=O)NCC(=O)O)C(=O)O [GSNO, nitrosoglutathione]",effect of GSNO nitrosylation on MAT-III/I,"MAT-III/I in L02 cells; 1 mM GSNO pretreatment, Met stimulation",inhibition of MAT-III or MAT-I after nitrosation of GSNO was obvious; also recorded: inhibitory effect of GSNO nitrosylation on MAT-III/I was obvious
same,effect of GSNO nitrosylation on MAT activity,MAT-III/I in L02 cells; in the presence of 2 mM Met,remained obvious
same,effect of GSNO nitrosylation on MAT-II,MAT-II in HepG2 cells; 1 mM GSNO pretreatment,minor effect on MAT-II; also recorded: no inhibitory effect on MAT-II
[Cl-].[K+] [KCl],A/A0,"[2]; KCl 50 mM, 20 mM MgSO4, 100 mM Tris, ATP 5 mM, Met 4 mM, MAT 1 mg/ml",0.1983
same,A/A0,[2]; KCl 100 mM,0.1938
same,A/A0,[2]; KCl 150 mM,0.1911
same,A/A0,[2]; KCl 200 mM,0.1973
same,A/A0,[2]; KCl 250 mM,0.2079
same,A/A0,[2]; KCl 300 mM,0.2106
same,A/A0,[2]; KCl 400 mM,0.1995
"CSCC[C@H](N)C(=O)O [Met, methionine]",SAM (nM) synthesized by MAT,"MAT-III/I in L02 cells; 0.5 mM Met 24 h, normalized to 2×10^7 cells, 0 mM Met control 274.4578162",377.7 nM
same,effect on MAT-III/I activity,"MAT-III/I in L02 cells; 500 μM Met, 24 hours",stimulated the activity of MAT-III or MAT-I; also recorded: stimulated MAT-III/I activity
same,effect on MAT-III/I activity,MAT-III/I in L02 cells; 2 mM Met,No stimulatory effects; also recorded: stimulation was not significant
same,SAM (nM) synthesized by MAT,MAT-III/I in L02 cells; 2 mM Met 24 h,236.4 nM
same,SAM (nM) synthesized by MAT,"MAT-II in HepG2 cells; 0.5 mM Met 24 h, normalized to 2×10^7 cells, 0 mM Met control 247.4761",222.3993 nM
same,SAM (nM) synthesized by MAT,MAT-II in HepG2 cells; 2 mM Met 24 h,174.3621 nM
same,effect on MAT-II activity,MAT-II in HepG2 cells; Met 0.5 and 2 mM,"the higher the Met concentration, the lower the activity of MAT-II; also recorded: inhibits MAT-II activity"
same,A/A0 (reaction rate),[1]; [3],1.042
same,A/A0 (reaction rate),[1]; [4],1.046
same,A/A0 (reaction rate),[1]; [5],1.012
same,A/A0 (reaction rate),[1]; [6],1.095
same,Cross-reaction (%),[1],<1%
O=S(=O)([O-])[O-].[Mg+2] [MgSO4],A/A0,"[2]; MgSO4 4 mM, 250 mM KCl, 100 mM Tris, ATP 5 mM, Met 4 mM, MAT 1 mg/ml",0.2199
same,A/A0,[2]; MgSO4 10 mM,0.2047
same,A/A0,[2]; MgSO4 30 mM,0.1867
same,A/A0,[2]; MgSO4 50 mM,0.1766
same,A/A0,[2]; MgSO4 70 mM,0.1734
same,A/A0,[2]; MgSO4 100 mM,0.1724
same,decrease of A/A0,[2]; MgSO4 from 4 mM to 100 mM,0.475
"NC(CO)(CO)CO [Tris, tris (hydroxymethyl) aminomethane]",A/A0,"[2]; Tris 20 mM, after optimal Mg2+ and K+ were determined",0.4981
same,A/A0,[2]; Tris 50 mM,0.2567
same,A/A0,[2]; Tris 100 mM,0.2168
same,A/A0,[2]; Tris 200 mM,0.2472

# Reference: US20180328927A1 (HUNAN SKYWORLD BIOTECHNOLOGIES CO., priority 2015, published 2018)
